Results on 14 molecules are retold here after US20090030024A1, “THIAZOLES AS FUNGICIDES” (priority 2005, published 2009).

The chromatographic logP is lipophilicity estimated from chromatographic retention.

The first data set can be described thus: logP determination by retention times (calibration with alkan-2-ones). Particulars: * HPLC reversed-phase C18, 40° C., mobile phase 0.1% aqueous formic acid and acetonitrile, linear gradient 10% to 95% acetonitrile.
As to `CC(=O)Nc1ccc(Nc2nccc(-c3sc(N(C)C)nc3C(F)(F)F)n2)cc1` [Example 699, N-[4-({4-[2-(dimethylamine)-4-(trifluoromethyl)-1,3-thiazol-5-yl]pyrimidin-2-yl}amino)phenyl]acetamide], the logP is given as 2.58*. As for `CN(C)c1nc(C(F)(F)F)c(-c2ccnc(Nc3ccc(N(C)C)c(Cl)c3)n2)s1` [Example 701, 2-chloro-N4-{4-[2-(dimethylamine)-4-(trifluoromethyl)-1,3-thiazol-5-yl]pyrimidin-2-yl}-N1,N1-dimethylbenzene-1,4-diamine], the logP is given as 3.46*. Consider `CN(C)c1nc(C(F)(F)F)c(-c2ccnc(Nc3cccc(O)c3)n2)s1` [Example 702, 3-({4-[2-(dimethylamine)-4-(trifluoromethyl)-1,3-thiazol-5-yl]pyrimidin-2-yl}amino)phenol], for which the logP is on record as 2.84*. Regarding `CN(C)c1nc(C(F)(F)F)c(-c2ccnc(Nc3ccc4c(c3)OCO4)n2)s1` [Example 704, N-1,3-benzodioxol-5-yl-4-[2-(dimethylamine)-4-(trifluoromethyl)-1,3-thiazol-5-yl]pyrimidine-2-amine], the logP is reported as 3.63*. The same measure, in the same setting: with `COc1cc(Nc2nccc(-c3sc(N(C)C)nc3C(F)(F)F)n2)cc(OC)c1` [Example 707, N-(3,5-dimethoxyphenyl)-4-[2-(dimethylamine)-4-(trifluoromethyl)-1,3-thiazol-5-yl]pyrimidine-2-amine] the figure was 3.85*.

The data set is the same for the next values; noted with them: logP, * HPLC reversed-phase C18, 40° C., mobile phase 0.1% aqueous formic acid and acetonitrile, linear gradient 10% to 95% acetonitrile.
As to `Cc1nc(C(F)(F)F)c(-c2ccnc(Nc3ccc(N(C)C)c(Cl)c3)n2)s1` [Example 700, 2-chloro-N1,N1-dimethyl-N4-{4-[2-methyl-4-(trifluoromethyl)-1,3-thiazol-5-yl]pyrimidin-2-yl}benzene-1,4-diamine], the chromatographic logP is 2.88. `Cc1nc(C(F)(F)F)c(-c2ccnc(Nc3ccc4c(c3)OCO4)n2)s1` [Example 703, N-1,3-benzodioxol-5-yl-4-[2-methyl-4-(trifluoromethyl)-1,3-thiazol-5-yl]pyrimidine-2-amine] registered a chromatographic logP of 3.21. `Cc1nc(C(F)(F)F)c(-c2ccnc(Nc3ccc(F)c(F)c3)n2)s1` [Example 705, N-(3,4-difluorophenyl)-4-[2-methyl-4-(trifluoromethyl)-1,3-thiazol-5-yl]pyrimidine-2-amine] showed a chromatographic logP of 3.76. As to `COc1cc(Nc2nccc(-c3sc(C)nc3C(F)(F)F)n2)cc(OC)c1` [Example 706, N-(3,5-dimethoxyphenyl)-4-[2-methyl-4-(trifluoromethyl)-1,3-thiazol-5-yl]pyrimidine-2-amine], the chromatographic logP was found to be 3.41. Take `COc1cc(Nc2nccc(-c3sc(C)nc3C(F)F)n2)cc(OC)c1OC` [Example 708, 4-[4-(difluoromethyl)-2-methyl-1,3-thiazol-5-yl]-N-(3,4,5-trimethoxyphenyl)pyrimidine-2-amine]: the chromatographic logP was 2.61. On the same count and under the same terms, for `CC(=O)c1cccc(Nc2nccc(-c3sc(C)nc3C(F)F)n2)c1` [Example 709, 1-[3-({4-[4-(difluoromethyl)-2-methyl-1,3-thiazol-5-yl]pyrimidin-2-yl}amino)phenyl]ethanone] the value was 2.64; for `Cc1nc(C(F)F)c(-c2ccnc(Nc3ccccc3)n2)s1` [Example 710, 4-[4-(difluoromethyl)-2-methyl-1,3-thiazol-5-yl]-N-phenylpyrimidine-2-amine], 2.97. Still for that read-out and setting: with `CCc1nc(C)c(-c2ccnc(Nc3ccc(C(=O)NCCOC)cc3)n2)s1` [Example 711, 4-{[4-(2-ethyl-4-methyl-1,3-thiazol-5-yl)pyrimidin-2-yl]amino}-N-(2-methoxyethyl)benzamide] the figure was 2.09; with `COC(=O)NCc1cccc(Nc2nccc(-c3sc(SC)nc3C)n2)c1` [Example 712, methyl-[3-({4-[4-methyl-2-(methylthio)-1,3-thiazol-5-yl]pyrimidin-2-yl}amino)benzyl]carbamate], 2.16.
